From patent US20140371244A1, “METHOD FOR TREATING PROSTATE CANCER BY USE OF PHARMACEUTICAL COMPOSITION CONTAINING A3 ADENOSINE RECEPTOR AGONIST” (priority 2009, published 2014)

Test system: NF-κB
Assay: NF-κB signaling (Western blot, EMSA) in LPS-stimulated RAW 264.7 cells
Type: cell-based, mouse
From the text: NF-κB is a transcription factor consisting of p65/p50 and is present in an inactivated state by binding to IκB in the cytoplasm, but when it is stimulated by, for example, LPS, it is activated by a series of processes, including the phosphorylation and degradation of IκB by IκB kinase (IKK). When NF-κB state becomes a free state, it moves into the nucleus and binds to the κB-binding site, thereby regulating the expression of genes, such as iNOS, TNF-α and IL-1β, which are involved in inflammatory reactions. Thus, the effect of the inventive composition on the NF-κB signaling system was tested by Western blot analysis and EMSA.
EMSA was performed in order to examine whether NF-κB moves into the nucleus to bind to DNA.

**Q.** What does the source list for `CNC(=O)[C@H]1S[C@@H](n2cnc3c(NCc4cccc(I)c4)nc(Cl)nc32)[C@H](O)[C@@H]1O` [thio-Cl-IB-MECA, 2-chloro-N^6-(3-iodobenzyl)-4′-thioadenosine-5′-N-methyluronamide]?
**A.** degradation of IκB protein (20 μM, 15 minutes after LPS): the degradation of IκB protein was inhibited; DNA binding of NF-κB (EMSA): inhibited the DNA binding of NF-κB; protein bonding of p65 subunit of NF-κB (EMSA): inhibited
